Results taken from patent US10428134B2, “Immunoglobulins and uses thereof” (JANSSEN PHARMACEUTICA NV, priority 2016, dated 2019).

Experiment: Single-dose efficacy in DIO mice: IPGTT, fasting glucose, insulin
Settings: 0.3 nmol/kg s.c.

Substance: Dulaglutide: the GLP1R agonist, dulaglutide [reference compound]
- Plasma Insulin (10 minutes post-glucose (IPGTT)): 1.7 ± 0.2 ng/mL
- 6 hour fasting Blood Glucose (24 hours after treatment): 140 ± 7 mg/dL
- Blood Glucose Net AUC (IPGTT) (24 hours after treatment): 8471 ± 1204
- blood glucose during IPGTT (24 hours after treatment, 0 min): 140 ± 7 mg/dL
- blood glucose during IPGTT (24 hours after treatment, 10 min): 264 ± 18 mg/dL
- blood glucose during IPGTT (24 hours after treatment, 30 min): 267 ± 22 mg/dL
- blood glucose during IPGTT (24 hours after treatment, 60 min): 228 ± 12 mg/dL
- blood glucose during IPGTT (24 hours after treatment, 90 min): 193 ± 9 mg/dL
- Plasma Insulin (Pre-glucose (24 hours after treatment)): 1.6 ± 0.2 ng/mL
